The source of these data is ChEMBL document CHEMBL1139648, “Designing rapid onset selective serotonin re-uptake inhibitors. Part 1: Structure-activity relationships of substituted (1S,4S)-4-(3,4-dichlorophenyl)-N-methyl-1,2,3,4-tetrahydro-1-naphthaleneamine” (Bioorg Med Chem Lett, 2006).

Where only a bound is given, the exact number is not on record here.

The term IC50 denotes the concentration at which inhibition is half-maximal. A lower IC50 goes with inhibition by little substance. For orientation: logD means the decadic logarithm of the distribution of all forms, ionised or not, between an organic phase and buffer at a given pH. Higher therefore signals a more lipophilic compound. Usually pKa stands for the pH at which an ionisable group is half protonated. A higher pKa goes with a weaker acid or stronger base. For orientation: bioavailability means the share of a dose that reaches the circulation, judged against a reference dose that is usually intravenous. Lower therefore signals little systemic uptake. For orientation: half-life means the time needed for the level to fall by half in the phase considered. What is called Tmax is the time at which the peak concentration occurs. Broadly, the Log D is the decadic logarithm of the distribution of all forms, ionised or not, between an organic phase and buffer at a given pH. Low readings indicate a more hydrophilic compound, high ones a more lipophilic compound.

For data set [1], the target named is Sodium-dependent noradrenaline transporter (Homo sapiens, UniProt P23975). In words: Inhibition of noradrenaline re-uptake at human noradrenaline transporter expressed in HEK293 cells. It is filed as cell-based.
Sequence of Sodium-dependent noradrenaline transporter (P23975 whole entry): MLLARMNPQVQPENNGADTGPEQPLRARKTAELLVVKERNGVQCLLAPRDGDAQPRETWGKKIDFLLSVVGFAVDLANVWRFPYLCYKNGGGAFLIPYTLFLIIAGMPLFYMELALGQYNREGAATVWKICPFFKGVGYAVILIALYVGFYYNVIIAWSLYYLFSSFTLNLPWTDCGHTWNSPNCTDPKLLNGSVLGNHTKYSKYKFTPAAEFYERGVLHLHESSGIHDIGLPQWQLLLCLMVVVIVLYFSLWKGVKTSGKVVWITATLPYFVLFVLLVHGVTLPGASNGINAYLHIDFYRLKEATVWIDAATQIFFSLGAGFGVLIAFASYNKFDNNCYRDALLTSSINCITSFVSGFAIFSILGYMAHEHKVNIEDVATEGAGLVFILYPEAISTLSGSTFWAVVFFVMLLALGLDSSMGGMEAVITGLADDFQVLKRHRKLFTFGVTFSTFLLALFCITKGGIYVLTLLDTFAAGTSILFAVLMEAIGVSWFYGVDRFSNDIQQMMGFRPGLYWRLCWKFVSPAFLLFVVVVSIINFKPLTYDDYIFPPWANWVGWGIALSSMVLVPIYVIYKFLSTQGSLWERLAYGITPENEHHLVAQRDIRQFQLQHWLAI
A short description of data set [2]: Distribution coefficient of the compound, log D. In kind it is physicochemical. Conditions: octanol/water.
The nature of data set [3]: Dissociation constant, pKa of the compound. In kind it is physicochemical.
Data set [4] in a line: Oral bioavailability in rat at 5 mg/kg, po. It is filed as ADME, organism-based. Conditions: in vivo.
For data set [5], the system named is Rattus norvegicus. As to the kind of experiment: Unbound volume of distribution in rat at 3 mg/kg, iv or 5 mg/kg, po. It is filed as ADME, organism-based. Conditions: in vivo.
A short description of data set [6]: Half life in rat liver microsome. In kind it is ADME. The following applies: liver microsomes. (In general: Microsomes from liver hold many membrane-bound enzymes, among them those of drug oxidation.)
Data set [7] is described as follows: Tmax in rat at 3 mg/kg, iv or 5 mg/kg, po. It is filed as ADME, organism-based. The following applies: in vivo.
The nature of data set [8]: Volume of distribution in rat at 3 mg/kg, iv or 5 mg/kg, po. In kind it is ADME, organism-based. The following applies: in vivo, read-out: Vdss.
The nature of data set [9]: Half life in rat at 3 mg/kg, iv or 5 mg/kg, po. It is filed as ADME, organism-based. Conditions: in vivo.
Data set [10] in a line: Blood clearance in rat in CNS penetration assay at 3 mg/kg, iv or 5 mg/kg, po. In kind it is ADME, organism-based. Conditions: whole blood.
Data set [11] can be described thus: Half life in human liver microsome. In kind it is ADME. The following applies: liver microsomes.
The test system of data set [12] is Rattus norvegicus. As to the kind of experiment: Unbound volume of distribution in rat at 1 mg/kg, iv or 1 mg/kg, po. The following applies: in vivo. In kind it is ADME, organism-based.
The nature of data set [13]: Oral bioavailability in rat at 1 mg/kg, po. It is filed as ADME, organism-based. Conditions: in vivo.
Data set [14] in a line: Tmax in rat at 1 mg/kg, iv or 1 mg/kg, po. In kind it is ADME, organism-based. Conditions: in vivo.
Data set [15] can be described thus: Half life in rat at 1 mg/kg, iv or 1 mg/kg, po. The following applies: in vivo. It is filed as ADME, organism-based.
The nature of data set [16]: Volume of distribution in rat at 1 mg/kg, iv or 1 mg/kg, po. Conditions: in vivo, read-out: Vdss. It is filed as ADME, organism-based.

In data set [1], `CN[C@H]1CC[C@@H](c2ccc(Cl)c(Cl)c2)c2ccc(C[S+](C)[O-])cc21` (some centres not stated) registered an IC50 of 450 nM.

The molecule `CN[C@H]1CC[C@@H](c2ccc(Cl)c(Cl)c2)c2cc(C(N)=O)c(NS(C)(=O)=O)cc21` registered an IC50 in data set [1] of 2100 nM.

Regarding `CN[C@H]1CC[C@@H](c2ccc(Cl)c(Cl)c2)c2cc(C(=O)O)ccc21`, 20300 nM corresponded to half-maximal inhibition in data set [1] (IC50).

In [1], `CN[C@H]1CC[C@@H](c2ccc(Cl)c(Cl)c2)c2ccc(S(=O)(=O)N(C)C)cc21` had a half-inhibitory concentration (IC50) of 2700 nM.

In data set [1], `CN[C@@H]1CC[C@H](c2ccc(Cl)c(Cl)c2)c2ccc(S(N)(=O)=O)cc21` came in with an IC50 of 310 nM.

As for `CN[C@H]1CC[C@@H](c2ccc(Cl)c(Cl)c2)c2cc(S(C)(=O)=O)ccc21`, half-maximal inhibition in data set [1] (IC50) was put at 4200 nM.

`CN[C@H]1CC[C@@H](c2ccc(Cl)c(Cl)c2)c2ccc(CC(N)=O)cc21`: half-maximal inhibition in [1] (IC50) required 920 nM.

On to `CN[C@H]1CC[C@@H](c2ccc(Cl)c(Cl)c2)c2ccc(C#N)cc21`, for which half-maximal inhibition in [1] (IC50) required 3200 nM.

Regarding `CN[C@H]1CC[C@@H](c2ccc(Cl)c(Cl)c2)c2ccc(S(=O)(=O)NC)cc21`, the IC50 in [1] is 1250 nM. Further, in data set [2], the logD is 2.8.

Regarding `CN[C@H]1CC[C@@H](c2ccc(Cl)c(Cl)c2)c2cccc(C(=O)O)c21`, inhibition in [1] was half-maximal at 880 nM (IC50).

In the case of `CN[C@H]1CC[C@@H](c2ccc(Cl)c(Cl)c2)c2cc(S(N)(=O)=O)ccc21`, in [1], the IC50 is 2100 nM.

Take `CN[C@@H]1CC[C@@H](c2ccc(Cl)c(Cl)c2)c2ccc(S(N)(=O)=O)cc21`: in data set [1], the IC50 is 310 nM.

In data set [1], `CN[C@H]1CC[C@@H](c2ccc(Cl)c(Cl)c2)c2cc(C(=O)N(C)C)ccc21` returned a half-maximal inhibitory concentration (IC50) of 11500 nM.

Turning to `CN[C@H]1CC[C@@H](c2ccc(Cl)c(Cl)c2)c2cccc(C(N)=O)c21`, in [1], half-maximal inhibition (IC50) required 1150 nM.

The molecule `CN[C@H]1CC[C@@H](c2ccc(Cl)c(Cl)c2)c2ccc(S(C)(=O)=O)cc21` gave an IC50 in [1] of 2100 nM.

`CNC(=O)c1cccc2c1[C@@H](NC)CC[C@H]2c1ccc(Cl)c(Cl)c1`: in data set [1], the IC50 came out at 1500 nM.

On to `CN[C@H]1CC[C@@H](c2ccc(Cl)c(Cl)c2)c2ccc(CNS(C)(=O)=O)cc21`, for which, in data set [1], the IC50 came to 960 nM.

In [1], `CNC(=O)c1ccc2c(c1)[C@H](c1ccc(Cl)c(Cl)c1)CC[C@@H]2NC` came in with an IC50 of 5000 nM.

Regarding `CN[C@H]1CC[C@@H](c2ccc(Cl)c(Cl)c2)c2ccc(CO)cc21`, 980 nM corresponded to half-maximal inhibition in [1] (IC50).

In [2], `CNC(=O)c1ccc2c(c1)[C@@H](NC)CC[C@H]2c1ccc(Cl)c(Cl)c1` returned a logD of 2.8. In data set [3], this molecule came in with a pKa of 8.8.

Consider `CN[C@H]1CC[C@@H](c2ccc(Cl)c(Cl)c2)c2ccc(CC(=O)O)cc21`, for which the IC50 in data set [1] came out at 9600 nM.

Molecule `CN[C@H]1CC[C@@H](c2ccc(Cl)c(Cl)c2)c2ccc(C(=O)OC)cc21` registered an IC50 in [1] of 1250 nM.

The molecule `CN[C@H]1CC[C@@H](c2ccc(Cl)c(Cl)c2)c2cc(C(=O)O)c(NS(C)(=O)=O)cc21` displayed an IC50 in [1] of 9100 nM.

Regarding `CN[C@H]1CC[C@@H](c2ccc(Cl)c(Cl)c2)c2ccc(S(=O)(=O)NCCO)cc21`, the IC50 in data set [1] is 540 nM.

`CN[C@H]1CC[C@@H](c2ccc(Cl)c(Cl)c2)c2ccc(NS(C)(=O)=O)cc21`: in [1], the midpoint of inhibition, the IC50, lay at 60 nM.

In data set [1], `CN[C@H]1CC[C@@H](c2ccc(Cl)c(Cl)c2)c2cc([S+](C)[O-])ccc21` (some centres not stated) yielded an IC50 of 1800 nM.

The molecule `CN[C@H]1CC[C@H](c2ccc(Cl)c(Cl)c2)c2ccc(S(N)(=O)=O)cc21` registered an IC50 in data set [1] of 11 nM.

In turn, `CN[C@H]1CC[C@@H](c2ccc(Cl)c(Cl)c2)c2ccc([S+](C)[O-])cc21` (some centres not stated) had an IC50 in data set [1] of 2000 nM.

`CN[C@H]1CC[C@@H](c2ccc(Cl)c(Cl)c2)c2cc(C(N)=O)ccc21` registered an IC50 in data set [1] of 1100 nM.

Molecule `CN[C@H]1CC[C@@H](c2ccc(Cl)c(Cl)c2)c2ccc(-n3cncn3)cc21` displayed an IC50 in data set [1] of 760 nM.

As to `CN[C@H]1CC[C@@H](c2ccc(Cl)c(Cl)c2)c2ccc(S(N)(=O)=O)cc21`, half-maximal inhibition in [1] (IC50) was put at 770 nM. Also, the bioavailability in data set [4] came to 44%. In data set [5], the Vdss stood at 600 L/kg. The molecule also gave a logD in [2] of 2.3. Further, the half-life in [6] is above 120 min; in data set [9], 240 min; in data set [11] it was above 120 min. In addition, in data set [7], the Tmax amounted to 1 h. For the same molecule, in data set [8], the Vd was found to be 19 L/kg. The pKa in data set [3] is 8.4. Moreover, the clearance in [10] turned out to be 60 mL/min/kg.

For `CN[C@H]1CC[C@@H](c2ccc(Cl)c(Cl)c2)c2ccc([N+](=O)[O-])cc21`, 2900 nM corresponded to half-maximal inhibition in [1] (IC50).

Consider `CN[C@H]1CC[C@@H](c2ccc(Cl)c(Cl)c2)c2ccc(C(N)=O)cc21`, for which the midpoint of inhibition in [1], the IC50, lay at 410 nM. Besides, in [2], the logD was 2.3. This molecule registered a pKa in [3] of 8.5.

`CN[C@H]1CC[C@@H](c2ccc(Cl)c(Cl)c2)c2ccc(-n3ccnn3)cc21` showed a 50% inhibitory concentration (IC50) in data set [1] of 650 nM.

Take `CN[C@H]1CC[C@@H](c2ccc(Cl)c(Cl)c2)c2ccccc21` [SERTRALINE]: the Vdu in data set [12] is listed as 1900 L/kg. The bioavailability in [13] stood at 51%. In [14], the Tmax was 4 h. The figures for the half-life in data set [15], in data set [6] and in data set [11] were 300 min, 23 min and above 120 min, respectively. In addition, the Vd in [16] was found to be 52 L/kg. Besides, in data set [2], the “Log D” value is given as 3.1. The pKa in [3] came out at 9.3.
